The source made the active and inactive calls. No cut-off for these calls is given here.
Experiments:
[1] = biological target: Human immunodeficiency virus type 1 reverse transcriptase (Human immunodeficiency virus 1, UniProt Q72547); experiment: Inhibition of HIV1 reverse transcriptase activity after 1 hr by ELISA
HeLa = experiment: Cytotoxicity against human HeLa cells up to 200 uM after 48 hrs by MTT assay

IC50 [1] | Structure (SMILES) | Activity (HeLa)
3.75 µM | O=c1[nH]c(=O)n([C@@H]2O[C@H](CNCc3ccc(Cl)cc3)[C@@H](O)[C@H]2O)cc1F | inactive
2.82 µM | O=c1ccn([C@@H]2O[C@H](CNCc3ccc(Cl)cc3)[C@@H](O)[C@H]2O)c(=O)[nH]1 | inactive
6.13 µM | O=c1ccn([C@@H]2O[C@H](CNCc3ccccc3Cl)[C@@H](O)[C@H]2O)c(=O)[nH]1 | inactive
3.9 µM | O=c1[nH]c(=O)n([C@@H]2O[C@H](CNCc3c(F)cccc3Cl)[C@@H](O)[C@H]2O)cc1F | inactive
4.84 µM | O=c1[nH]c(=O)n([C@@H]2O[C@H](CNCc3c(Cl)cccc3Cl)[C@@H](O)[C@H]2O)cc1F | inactive
4.99 µM | O=c1ccn([C@@H]2O[C@H](CNCc3c(F)cccc3Cl)[C@@H](O)[C@H]2O)c(=O)[nH]1 | inactive
4.72 µM | O=c1ccn([C@@H]2O[C@H](CNCc3c(Cl)cccc3Cl)[C@@H](O)[C@H]2O)c(=O)[nH]1 | inactive
3.53 µM | O=c1[nH]c(=O)n([C@@H]2O[C@H](CNCc3ccccc3Cl)[C@@H](O)[C@H]2O)cc1F | inactive

Source: ChEMBL document CHEMBL1641424, “Synthesis and biological activity of novel 5'-arylamino-nucleosides by microwave-assisted one-pot tandem Staudinger/aza-Wittig/reduction” (Bioorg Med Chem Lett, 2011)
